Source: US20030139368A1, “Antithrombotic and/or anti-inflammatory composition combining purine activity and NSAID activity” (priority 2000, published 2003)

What was measured:
rat platelets = test: Aggregation of rat platelets (platelet rich plasma) stimulated by ADP, aggregometer; assay type: cell-based; conditions: for aggregation: without AMP 80%
Protocol: Blood was collected on a citrate buffer from rats that had not received any treatment or from humans who had not received any treatment during the two weeks preceding collection of the blood sample. Platelet rich plasma was prepared by centrifugation using known methods. Measurements were performed using an aggregometer marketed under the name “Chrono-log”. The measurements were processed and digitized using an “MP30 Biopac” data acquisition system.

male mice = test: Anti-inflammatory effect: carrageenan-induced inflammation in air pocket, leukocyte count in exudate; assay type: in vivo; conditions: for Number of leukocytes: 100 mg/kg/day by gastric gavage on days 3, 4, 5, exudate 4 hours after carrageenan, controls 9.57 ± 0.48; for % inhibition: 100 mg/kg/day by gastric gavage, versus controls
Protocol: The test was performed on male mice weighing 20 g. This protocol lasted 5 days. On day 1, we injected 3 cm^3 of air in the dorsal part via the subcutaneous route. The resultant air pockets were reinflated on days 2, 3 and 4 with 1 cm^3 of air. […] We induced inflammation by injection of 1 ml of a 2% (weight/volume) suspension of carrageenan in PBS buffer into the air pocket. After 4 hours, the pockets were washed with 2 ml of PBS and the exudates were collected. Aliquot parts were diluted to 1:1 with a 0.01% solution of methylene blue in a PBS buffer. We then performed counting of the cells (principally neutrophils) whose accumulation was induced by the inflammation.

gastric mucosa = test: Gastric toxicity, macroscopic and histologic observation of the stomach; assay type: in vivo; conditions: 100 mg/kg by gavage, fasted rats, 3 hours
Protocol: This test was performed on Sprague Dawley rats (IFFA CREDO, l'Arbresle, France). The rats were in a fasting state the evening before the experiment (but drinking water was available ad libitum). […] Three hours later, the rats were sacrificed by a lethal dose of pentobarbital. The stomach was removed, opened along the greater curvature and rinsed with water. The gastric mucosa was photographed and digitized using a Macintosh G3 computer equipped with a program (NIH, USA) and a video card (Scion, USA). The stomach was fixed with buffered formalin and then processed with the conventional histological techniques for paraffin inclusion. The sections (5 μm) were then stained with hematoxylin-eosin-safranin.
Two observations were performed: macroscopic (after the stomach was collected, under the microscope) and histologic.

human platelets = test: Response of human platelets stimulated by collagen; assay type: cell-based; conditions: collagen 0.19 mg/ml; substance 0.6 mM
Protocol: Platelet rich plasma was prepared by centrifugation using known methods.
Measurements were performed using an aggregometer marketed under the name “Chrono-log”. The measurements were processed and digitized using an “MP30 Biopac” data acquisition system.
We studied the response of human platelets stimulated by collagen (0.19 mg/ml, Biodata). Two parameters were measured: the latency time (elapsed time between bringing the platelets into contact with collagen and the beginning of aggregation) and the maximum amplitude of aggregation.

Nc1ncnc2c1ncn2[C@@H]1O[C@H](CO)[C@@H](O)[C@H]1O [adenosine]
aggregation compared with AMP (5 mM) (rat platelets; ADP 20 μM, adenosine 4 mM in place of AMP 5 mM): Comparable results

CC(=O)Oc1ccccc1C(=O)O [aspirin, acetylsalicylic acid]
Number of leukocytes (male mice): 6.40 ± 0.77 millions/ml | % inhibition (male mice): 33%

O=C(Nc1ncnc2c1ncn2[C@@H]1O[C@H](CO)[C@@H](O)[C@H]1O)c1ccccc1O [Example 3, adenosine N-salicylyl]
damage to the gastric wall (macroscopic and histologic) (gastric mucosa): did not cause damage to the gastric wall | Number of leukocytes (male mice): 3.80 ± 0.80 millions/ml | % inhibition (male mice): 60%

O=C([O-])c1ccccc1O.[Na+] [sodium salicylate]
inhibition of platelet aggregation (rat platelets; sodium salicylate 7.5 mM added to plasma, then ADP 20 μM): No significant inhibition

Nc1ncnc2c1ncn2[C@@H]1O[C@H](COP(=O)(O)O)[C@@H](O)[C@H]1O [AMP, (5′-O-phosphate)adenosine]
latency time multiplied by (factor) (human platelets): circa 1.5 | maximum response (maximum amplitude of aggregation) to collagen (human platelets): not modified | aggregation (rat platelets; ADP 20 μM in the presence of 2.5 mM AMP): 40% | aggregation (rat platelets; ADP 20 μM in the presence of 5.0 mM AMP): 20% | effect on aggregation already induced (rat platelets; ADP 20 μM, AMP 10 mM added 30 seconds later): immediate disaggregation
